Source: patent publication US20060127329A1, “Tartar control oral care composition containing extract of magnolia” (Colgate-Palmolive Company, priority 2004, published 2006)

Tested on: representative oral bacteria S. mutans, F. nucleatum, V. parvula, A. naslundii, P. gingivitis
Experiment: in vitro test Minimal Inhibitory Concentration (MIC)
Assay type: cell-based
Conditions: no numbers given
Source text: The compositions of the present invention comprise at least one active compound found in an extract of magnolia. As referred to here, such an “extract” of magnolia is an extract from dried cortex, or bark, of a plant from the Magnoliaceae family, such as Magnolia officinalis, (hereinafter “magnolia”) or a synthetic or semi-synthetic equivalent of such an extract or an active component thereof. […] In other embodiments, the antibacterial ingredient comprises an extract of magnolia. […] It should be noted that any plant from the Magnoliaceae family is suitable for the present invention and may be used in alternate embodiments, preferably such that the extract comprises an antimicrobially effective concentration of a compound selected from the group consisting of magnolol, honokiol, tetrahydromagnolol, tetrahydrohonokiol, and mixtures thereof.

Compound	bactericidal properties against representative oral bacteria
C=CCc1ccc(O)c(-c2ccc(O)c(CC=C)c2)c1 [honokiol]	demonstrated bactericidal properties
CCCc1ccc(O)c(-c2cc(CCC)ccc2O)c1 [tetrahydromagnolol]	demonstrated bactericidal properties
C=CCc1ccc(O)c(-c2cc(CC=C)ccc2O)c1 [magnolol]	demonstrated bactericidal properties
CCCc1ccc(O)c(-c2ccc(O)c(CCC)c2)c1 [tetrahydrohonokiol]	demonstrated bactericidal properties
